Measurements as given in US12649750B2, “Macrocyclic compounds, compositions, and methods of using thereof” (Sionna Therapeutics Inc., priority 2022, dated 2026).

Tests used:
NBD1 = target: T1, NBD1 (Homo sapiens, UniProt P13569); assay: Aggregation analysis using differential static light scattering (DSLS), thermal stability of NBD1 (ΔTagg); type: binding; conditions: ΔTagg versus DMSO control, NBD1 0.2 mg/ml
T1 construct: Purified recombinant NBD1 was produced using previously described methods; made in house
T1 sequence (P13569 423-646 limits assumed): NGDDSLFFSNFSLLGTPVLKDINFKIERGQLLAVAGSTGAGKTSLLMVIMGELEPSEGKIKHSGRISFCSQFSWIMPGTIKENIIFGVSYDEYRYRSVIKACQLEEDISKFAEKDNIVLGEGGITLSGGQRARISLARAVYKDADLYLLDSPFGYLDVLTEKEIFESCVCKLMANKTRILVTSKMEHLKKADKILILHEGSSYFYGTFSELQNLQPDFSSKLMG
In short: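 Read-out is ΔTagg: the aggregation temperature, taken at the inflection of the light-scattering curve, less the average of DMSO control wells. Recombinant NBD1 (0.2 mg/ml, pH7.6 buffer containing 2 mM ATP) with test compound was heated at 1° C. per minute up to 70° C.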

CFTR = target: T2, CFTR (Homo sapiens, UniProt P13569, DEL508-508); assay: TECC24 AUC fold over DMSO @10 μM, CFTR-mediated transepithelial chloride transport in CF-HBE cells; type: cell-based; conditions: test agent AUC divided by DMSO vehicle AUC, primary CF-HBE cells, ΔF508 homozygous donor, 48 hours incubation
T2 construct: Primary human bronchial epithelial cells from a ΔF508 homozygous CF donor; host or cells: primary human bronchial epithelial cells (CF-HBE), ΔF508 homozygous donor
T2 sequence (P13569 with tags, fused parts or gaps DEL508-508): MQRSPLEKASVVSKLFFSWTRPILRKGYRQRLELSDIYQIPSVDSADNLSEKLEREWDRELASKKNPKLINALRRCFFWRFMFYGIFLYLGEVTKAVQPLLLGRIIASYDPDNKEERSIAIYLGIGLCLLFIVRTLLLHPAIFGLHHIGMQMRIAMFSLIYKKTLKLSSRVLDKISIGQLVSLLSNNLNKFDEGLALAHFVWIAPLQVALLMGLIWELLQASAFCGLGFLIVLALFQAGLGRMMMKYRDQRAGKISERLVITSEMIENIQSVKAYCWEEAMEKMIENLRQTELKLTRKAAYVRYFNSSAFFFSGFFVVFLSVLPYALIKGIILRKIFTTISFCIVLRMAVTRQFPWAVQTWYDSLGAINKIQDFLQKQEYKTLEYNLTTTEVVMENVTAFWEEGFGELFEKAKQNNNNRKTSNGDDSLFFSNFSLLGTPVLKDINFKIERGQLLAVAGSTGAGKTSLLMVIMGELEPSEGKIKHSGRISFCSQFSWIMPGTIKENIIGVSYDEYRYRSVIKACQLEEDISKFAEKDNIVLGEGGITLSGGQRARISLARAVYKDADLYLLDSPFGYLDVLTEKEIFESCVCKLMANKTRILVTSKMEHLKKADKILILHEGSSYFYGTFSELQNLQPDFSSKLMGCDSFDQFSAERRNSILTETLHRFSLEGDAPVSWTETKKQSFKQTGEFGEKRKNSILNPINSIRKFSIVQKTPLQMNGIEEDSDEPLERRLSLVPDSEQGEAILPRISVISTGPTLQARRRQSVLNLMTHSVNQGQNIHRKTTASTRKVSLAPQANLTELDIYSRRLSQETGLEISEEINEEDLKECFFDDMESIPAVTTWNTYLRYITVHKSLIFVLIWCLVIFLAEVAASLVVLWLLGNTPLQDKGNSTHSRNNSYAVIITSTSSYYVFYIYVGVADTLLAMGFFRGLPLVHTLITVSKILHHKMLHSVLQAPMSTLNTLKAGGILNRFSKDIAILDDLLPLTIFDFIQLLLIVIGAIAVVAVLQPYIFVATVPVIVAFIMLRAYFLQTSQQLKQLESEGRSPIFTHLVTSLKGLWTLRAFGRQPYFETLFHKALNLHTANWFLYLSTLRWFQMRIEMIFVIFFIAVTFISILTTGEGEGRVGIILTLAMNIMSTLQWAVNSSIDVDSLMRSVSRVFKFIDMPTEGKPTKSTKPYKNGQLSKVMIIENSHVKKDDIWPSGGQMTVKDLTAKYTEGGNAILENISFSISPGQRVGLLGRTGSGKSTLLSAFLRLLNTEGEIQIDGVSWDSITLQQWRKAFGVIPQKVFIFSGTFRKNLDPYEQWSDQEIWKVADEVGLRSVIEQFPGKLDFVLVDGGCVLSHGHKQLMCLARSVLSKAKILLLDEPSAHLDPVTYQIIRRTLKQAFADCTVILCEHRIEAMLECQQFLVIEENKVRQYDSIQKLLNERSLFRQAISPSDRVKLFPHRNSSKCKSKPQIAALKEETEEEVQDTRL
In short: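 Value is ratio of test-agent to DMSO AUC of equivalent transepithelial Cl− current, integrated from forskolin (10 μM) stimulation to CFTR inhibitor-172 (20 μM) block, with benzamil 10 μM present. CF-HBE (ΔF508/ΔF508) cultures had 48 h compound exposure at 10 μM, 36.5° C before recording.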

| Structure (SMILES) | DSLS 3D (100 μM ΔT) (NBD1) | TECC (AUC, 10 μM) (CFTR) |
| --- | --- | --- |
| C[C@@H](Cc1cccc(C2(C)CCCC(C)(C)CS(=O)(=O)CCc3c(c(F)cc4[nH]ccc34)[S+]([O-])c3ccc(F)c(c3)-c3nc2nn3C)n1)C(=O)O (single isomer, unassigned) [Compound 179C] | C (a value greater than 10 °C and less than or equal to 25 °C is marked “C”) | C (a value between 20 and 80 is marked “C”) |
| C[C@@H](Cc1cccc(C2(C)CCCC(C)(C)CS(=O)(=O)CCc3c(c(F)cc4[nH]ccc34)[S+]([O-])c3ccc(F)c(c3)-c3nc2nn3C)n1)C(=O)O (single isomer, unassigned) [Compound 179D] | A (an ΔTagg value less than or equal to 5 °C is marked “A”) | A (a TECC value less than 12 is marked “A”) |
| C[C@@H](Cc1cccc(C2(C)CCCC(C)(C)CS(=O)(=O)CCc3c(c(F)cc4[nH]ccc34)S(=O)(=O)c3ccc(F)c(c3)-c3nc2nn3C)n1)C(=O)O (single isomer, unassigned) [Compound 180A] | C (a value greater than 10 °C and less than or equal to 25 °C is marked “C”) | B (a value between 12-20 is marked “B”) |
| C[C@@H](Cc1cccc(C2(C)CCCC(C)(C)CS(=O)(=O)CCc3c(c(F)cc4[nH]ccc34)S(=O)(=O)c3ccc(F)c(c3)-c3nc2nn3C)n1)C(=O)O (single isomer, unassigned) [Compound 180B] | A (an ΔTagg value less than or equal to 5 °C is marked “A”) | A (a TECC value less than 12 is marked “A”) |
| C[C@H](Cc1cccc(C2(C)CCCC(C)(C)CS(=O)(=O)CCc3c(c(F)cc4[nH]ccc34)[S+]([O-])c3ccc(F)c(c3)-c3nc2nn3C)n1)C(=O)O (single isomer, unassigned) [Compound 181A] | B (a value above 5 °C and less than or equal to 10 °C is marked “B”) | A (a TECC value less than 12 is marked “A”) |
| C[C@H](Cc1cccc(C2(C)CCCC(C)(C)CS(=O)(=O)CCc3c(c(F)cc4[nH]ccc34)[S+]([O-])c3ccc(F)c(c3)-c3nc2nn3C)n1)C(=O)O (single isomer, unassigned) [Compound 181B] | A (an ΔTagg value less than or equal to 5 °C is marked “A”) | A (a TECC value less than 12 is marked “A”) |
| C[C@H](Cc1cccc(C2(C)CCCC(C)(C)CS(=O)(=O)CCc3c(c(F)cc4[nH]ccc34)[S+]([O-])c3ccc(F)c(c3)-c3nc2nn3C)n1)C(=O)O (single isomer, unassigned) [Compound 181C] | A (an ΔTagg value less than or equal to 5 °C is marked “A”) | A (a TECC value less than 12 is marked “A”) |
| C[C@H](Cc1cccc(C2(C)CCCC(C)(C)CS(=O)(=O)CCc3c(c(F)cc4[nH]ccc34)[S+]([O-])c3ccc(F)c(c3)-c3nc2nn3C)n1)C(=O)O (single isomer, unassigned) [Compound 181D] | C (a value greater than 10 °C and less than or equal to 25 °C is marked “C”) | A (a TECC value less than 12 is marked “A”) |
| C[C@H](Cc1cccc(C2(C)CCCC(C)(C)CS(=O)(=O)CCc3c(c(F)cc4[nH]ccc34)Oc3cc(ccn3)-c3nc2nn3C)c1)C(=O)O (single isomer, unassigned) [Compound 184] | B (a value above 5 °C and less than or equal to 10 °C is marked “B”) | A (a TECC value less than 12 is marked “A”) |
| C[C@@H](Cc1cccc(C2(C)CCCC(C)(C)CS(=O)(=O)CCc3c(c(F)cc4[nH]ccc34)Oc3ccc(F)c(c3)-c3nc2nn3C)c1)C(=O)NO (single isomer, unassigned) [Compound 185] | C (a value greater than 10 °C and less than or equal to 25 °C is marked “C”) | B (a value between 12-20 is marked “B”) |
| C[C@@H](Cc1cccc(C2(C)CCCC(C)(C)CS(=O)(=O)CCc3c(c(F)cc4[nH]ccc34)Oc3ccc(F)c(c3)-c3nc2nn3C)c1)C(=O)N(C)O (single isomer, unassigned) [Compound 187] | B (a value above 5 °C and less than or equal to 10 °C is marked “B”) | A (a TECC value less than 12 is marked “A”) |
| CCONC(=O)[C@@H](C)Cc1cccc(C2(C)CCCC(C)(C)CS(=O)(=O)CCc3c(c(F)cc4[nH]ccc34)Oc3ccc(F)c(c3)-c3nc2nn3C)c1 (single isomer, unassigned) [Compound 188] | B (a value above 5 °C and less than or equal to 10 °C is marked “B”) | B (a value between 12-20 is marked “B”) |
| CC(C)ONC(=O)[C@@H](C)Cc1cccc(C2(C)CCCC(C)(C)CS(=O)(=O)CCc3c(c(F)cc4[nH]ccc34)Oc3ccc(F)c(c3)-c3nc2nn3C)c1 (single isomer, unassigned) [Compound 189] | B (a value above 5 °C and less than or equal to 10 °C is marked “B”) | B (a value between 12-20 is marked “B”) |
| Cn1nc2nc1-c1cc(ccc1F)Oc1c(F)cc3[nH]ccc3c1CCS(=O)(=O)CC(C)(C)CCCC2(C)c1cccc(CC2CC(=O)N(O)C2=O)c1 (single isomer, unassigned) [Compound 195A, 3-[[3-(22,28-difluoro-3,6,10,10-tetramethyl-12,12-dioxo-24-oxa-12λ6-thia-3,4,19,30-tetrazapentacyclo[23.3.1.12,5.015,23.016,20]triaconta-1(29),2(30),4,15,17,20,22,25,27-nonaen-6-yl)phenyl]methyl]-1-hydroxy-pyrrolidine-2,5-dione] | C (a value greater than 10 °C and less than or equal to 25 °C is marked “C”) | C (a value between 20 and 80 is marked “C”) |
| Cn1nc2nc1-c1cc(ccc1F)Oc1c(F)cc3[nH]ccc3c1CCS(=O)(=O)CC(C)(C)CCCC2(C)c1cccc(CC2CC(=O)N(O)C2=O)c1 (single isomer, unassigned) [Compound 195B, 3-[[3-(22,28-difluoro-3,6,10,10-tetramethyl-12,12-dioxo-24-oxa-12λ6-thia-3,4,19,30-tetrazapentacyclo[23.3.1.12,5.015,23.016,20]triaconta-1(29),2(30),4,15,17,20,22,25,27-nonaen-6-yl)phenyl]methyl]-1-hydroxy-pyrrolidine-2,5-dione] | C (a value greater than 10 °C and less than or equal to 25 °C is marked “C”) | C (a value between 20 and 80 is marked “C”) |
| Cn1nc2nc1-c1cc(ccc1F)Oc1c(F)cc3[nH]ccc3c1CCS(=O)(=O)CC(C)(C)CCCC2(C)c1cccc(CC2CC(=O)NC2=O)c1 (single isomer, unassigned) [Compound 196A, 3-[[3-(22,28-difluoro-3,6,10,10-tetramethyl-12,12-dioxo-24-oxa-12λ6-thia-3,4,19,30-tetrazapentacyclo[23.3.1.12,5.015,23.016,20]triaconta-1(29),2(30),4,15,17,20,22,25,27-nonaen-6-yl)phenyl]methyl]pyrrolidine-2,5-dione] | C (a value greater than 10 °C and less than or equal to 25 °C is marked “C”) | A (a TECC value less than 12 is marked “A”) |
| Cn1nc2nc1-c1cc(ccc1F)Oc1c(F)cc3[nH]ccc3c1CCS(=O)(=O)CC(C)(C)CCCC2(C)c1cccc(CC2CC(=O)NC2=O)c1 (single isomer, unassigned) [Compound 196B, 3-[[3-(22,28-difluoro-3,6,10,10-tetramethyl-12,12-dioxo-24-oxa-12λ6-thia-3,4,19,30-tetrazapentacyclo[23.3.1.12,5.015,23.016,20]triaconta-1(29),2(30),4,15,17,20,22,25,27-nonaen-6-yl)phenyl]methyl]pyrrolidine-2,5-dione] | A (an ΔTagg value less than or equal to 5 °C is marked “A”) | A (a TECC value less than 12 is marked “A”) |
| C[C@@H](Cc1cccc([C@@]2(C)CCCC(C)(C)CS(=O)(=O)CCc3c(c(F)cc4[nH]ccc34)[S+]([O-])c3ccc(F)c(c3)-c3nc2nn3C)c1)C(=O)O (single isomer, unassigned) [Compound 204] | C (a value greater than 10 °C and less than or equal to 25 °C is marked “C”) | C (a value between 20 and 80 is marked “C”) |
| C[C@@H](Cc1cccc([C@@]2(C)CCCC(C)(C)CS(=O)(=O)CCc3c(c(F)cc4[nH]ccc34)[S+]([O-])c3ccc(F)c(c3)-c3nc2nn3C)c1)C(=O)O (single isomer, unassigned) [Compound 205] | B (a value above 5 °C and less than or equal to 10 °C is marked “B”) | A (a TECC value less than 12 is marked “A”) |
| C[C@H](Cc1cccc([C@@]2(C)CCCC(C)(C)CS(=O)(=O)CCc3c(c(F)cc4[nH]ccc34)[S+]([O-])c3ccc(F)c(c3)-c3nc2nn3C)c1)C(=O)O (single isomer, unassigned) [Compound 206A] | C (a value greater than 10 °C and less than or equal to 25 °C is marked “C”) | C (a value between 20 and 80 is marked “C”) |
| C[C@H](Cc1cccc([C@@]2(C)CCCC(C)(C)CS(=O)(=O)CCc3c(c(F)cc4[nH]ccc34)[S+]([O-])c3ccc(F)c(c3)-c3nc2nn3C)c1)C(=O)O (single isomer, unassigned) [Compound 206B] | B (a value above 5 °C and less than or equal to 10 °C is marked “B”) | A (a TECC value less than 12 is marked “A”) |
